From patent publication US20220363689A1, “INHIBITOR OF BTK AND MUTANTS THEREOF” (Newave Pharmaceutical Inc., priority 2019, published 2022)

Tests used:
Type in all cases: biochemical
WT BTK [1] = target: T1, WT BTK (Homo sapiens, UniProt Q06187); test: In vitro dialysis assay (irreversibility assay), WT BTK; conditions: reversible or irreversible/covalent inhibition after 24 h dialysis
Procedure: The compound-enzyme complex was dialyzed against the same buffer supplemented with 40 mM ATP for 24 hr. Cumulative dialysis factor>160,000×. After dialysis, the BTK activity was measured in the presence […] and 1 mM substrate peptide and compared to that in non-dialyzed samples. Assay buffer: 100 mM HEPES, pH7.5; […]; 5 mM MgCl2; 1 mM DTT. In this study, Ibrutiib (a FDA approved irreversible BTK inhibitor) was used as a positive control and Saurosporine (a reversible BTK inhibitor) was used as a negative control.

C481S Btk = C481S Btk (Homo sapiens, UniProt Q06187, C481S); test: Caliper-based kinase assay, C481S BTK; conditions: 0.5 nM enzyme, ATP 16 μM, room temperature 3 h; read-out: C481S BTK IC50 (nM) (reversible inhibition)
Chain of C481S Btk (Q06187 whole entry C481S): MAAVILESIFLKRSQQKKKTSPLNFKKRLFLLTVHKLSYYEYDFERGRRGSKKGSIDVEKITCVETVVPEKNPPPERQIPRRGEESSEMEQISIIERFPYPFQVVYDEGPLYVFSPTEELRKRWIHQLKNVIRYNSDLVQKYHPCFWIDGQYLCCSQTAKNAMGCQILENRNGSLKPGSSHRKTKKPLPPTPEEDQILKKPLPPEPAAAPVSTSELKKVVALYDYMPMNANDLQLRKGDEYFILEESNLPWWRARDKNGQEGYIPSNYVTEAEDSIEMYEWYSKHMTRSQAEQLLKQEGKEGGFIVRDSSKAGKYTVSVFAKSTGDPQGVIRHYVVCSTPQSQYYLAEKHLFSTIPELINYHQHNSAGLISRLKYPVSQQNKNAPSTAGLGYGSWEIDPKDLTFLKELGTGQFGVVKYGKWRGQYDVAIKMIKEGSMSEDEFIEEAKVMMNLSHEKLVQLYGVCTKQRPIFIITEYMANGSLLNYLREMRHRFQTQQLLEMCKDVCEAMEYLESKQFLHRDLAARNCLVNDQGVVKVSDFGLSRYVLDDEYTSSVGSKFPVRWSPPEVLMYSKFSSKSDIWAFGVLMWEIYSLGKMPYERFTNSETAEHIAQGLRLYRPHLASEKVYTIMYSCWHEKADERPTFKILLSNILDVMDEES
Procedure: (§1) A Caliper-based kinase assay (Caliper Life Sciences, Hopkinton, Mass.) was used to measure inhibition of WT and […] Btk kinase activity of a compound of the present disclosure. […] The reaction was then terminated with EDTA, final concentration 20 mM and the phosphorylated reaction product was quantified on a Caliper Desktop Profiler (Caliper LabChip 3000).

WT BTK [2] = target: T1, WT BTK; test: Caliper-based kinase assay, WT BTK; conditions: 0.5 nM enzyme, ATP 16 μM, room temperature 3 h; read-out: WT BTK IC50 (nM) (irreversible inhibition)
Procedure: as §1

T1 sequence (Q06187 whole entry): as the sequence (Q06187 whole entry C481S) above, with S481C counted along it

## C=CC(=O)Nc1cc(Nc2nc(-c3ccnc(N4CCn5c(cc6c5CC(C)(C)C6)C4=O)c3CO)cn(C)c2=O)ccc1N1CCC(N2CCOCC2)CC1C (stereo not drawn) [Example 12, N-(5-((6-(2-(7,7-dimethyl-1-oxo-1,3,4,6,7,8-hexahydro-2H-cyclopenta[4,5]pyrrolo[1,2-a]pyrazin-2-yl)-3-(hydroxymethyl)pyridin-4-yl)-4-methyl-3-oxo-3,4-dihydropyrazin-2-yl)amino)-2-(2-methyl-4-morpholinopiperidin-1-yl)phenyl)acrylamide]
WT BTK [1]
  Conclusion (WT BTK): Irreversible/covalent inhibition
C481S Btk
  IC50: 0.25 nM
WT BTK [2]
  IC50: 0.046 nM

## C=CC(=O)Nc1cc(Nc2nc(-c3ccnc(N4CCn5c(cc6c5CC(C)(C)C6)C4=O)c3C)cn(C)c2=O)ccc1N1CCC(N2CCOCC2)CC1C [Example 17, N-(5-[[6-(2-[4,4-dimethyl-9-oxo-1,10-diazatricyclo[6.4.0.0^[2,6]]dodeca-2(6),7-dien-10-yl]-3-methylpyridin-4-yl)-4-methyl-3-oxopyrazin-2-yl]amino]-2-[(2S)-2-methyl-4-(morpholin-4-yl)piperidin-1-yl]phenyl)prop-2-enamide]
WT BTK [1]
  Conclusion (WT BTK): Irreversible/covalent inhibition
C481S Btk
  IC50: 7.1 nM
WT BTK [2]
  IC50: 0.1 nM

## C=CC(=O)Nc1cc(Nc2nc(-c3ccnc(N4CCn5c(cc6c5CC(C)(C)C6)C4=O)c3C)cn(C)c2=O)ccc1N1CCC(N2CCOCC2)CC1.Cl [Example 18, N-(5-[[6-(2-[4,4-dimethyl-9-oxo-1,10-diazatricyclo[6.4.0.0^[2,6]]dodeca-2(6),7-dien-10-yl]-3-methylpyridin-4-yl)-4-methyl-3-oxopyrazin-2-yl]amino]-2-[4-(morpholin-4-yl)piperidin-1-yl]phenyl)prop-2-enamide hydrochloride]
WT BTK [1]
  Conclusion (WT BTK): Irreversible/covalent inhibition
C481S Btk
  IC50: 11.4 nM
WT BTK [2]
  IC50: 0.18 nM

## C=CC(=O)Nc1cc(Nc2nc(-c3ccnc(N4CCn5c(cc6c5CC(C)(C)C6)C4=O)c3CO)cn(C)c2=O)ccc1N1CCC(N2CCC(F)(F)CC2)CC1 [Example 20, N-(2-[4,4-difluoro-[1,4′-bipiperidin]-1′-yl]-5-[[6-(2-[4,4-dimethyl-9-oxo-1,10-diazatricyclo[6.4.0.0^[2,6]]dodeca-2(6),7-dien-10-yl]-3-(hydroxymethyl)pyridin-4-yl)-4-methyl-3-oxopyrazin-2-yl]amino]phenyl)prop-2-enamide]
WT BTK [1]
  Conclusion (WT BTK): Irreversible/covalent inhibition
C481S Btk
  IC50: 0.4 nM
WT BTK [2]
  IC50: 0.053 nM

## C=CC(=O)Nc1cc(Nc2nc(-c3ccnc(N4CCn5c(cc6c5CC(C)(C)C6)C4=O)c3CO)cn(C)c2=O)ccc1N1CCC(N2CCN(C)CC2)CC1 [Example 21, N-(5-[[6-(2-[4,4-dimethyl-9-oxo-1,10-diazatricyclo[6.4.0.0^[2,6]]dodeca-2(6),7-dien-10-yl]-3-(hydroxymethyl)pyridin-4-yl)-4-methyl-3-oxopyrazin-2-yl]amino]-2-[4-(4-methylpiperazin-1-yl)piperidin-1-yl]phenyl)prop-2-enamide]
WT BTK [1]
  Conclusion (WT BTK): Irreversible/covalent inhibition
C481S Btk
  IC50: 0.4 nM
WT BTK [2]
  IC50: 0.04 nM

## C=CC(=O)Nc1cc(Nc2nc(-c3ccnc(N4CCn5c(cc6c5CC(C)(C)C6)C4=O)c3CO)cn(C)c2=O)ccc1N1CCN(C2CCOCC2)C[C@@H]1C [Example 22, N-(5-[[6-(2-[4,4-dimethyl-9-oxo-1,10-diazatricyclo[6.4.0.0^[2,6]]dodeca-2(6),7-dien-10-yl]-3-(hydroxymethyl)pyridin-4-yl)-4-methyl-3-oxopyrazin-2-yl]amino]-2-[(2S)-2-methyl-4-(oxan-4-yl)piperazin-1-yl]phenyl)prop-2-enamide]
WT BTK [1]
  Conclusion (WT BTK): Irreversible/covalent inhibition
C481S Btk
  IC50: 0.48 nM
WT BTK [2]
  IC50: 0.046 nM

## C=CC(=O)Nc1cc(Nc2nc(-c3ccnc(N4CCn5c(cc6c5CC(C)(C)C6)C4=O)c3CO)cn(C)c2=O)ccc1N1CCN(C2CCC(F)(F)CC2)C[C@@H]1C [Example 23, N-[2-[(2S)-4-(4,4-difluorocyclohexyl)-2-methylpiperazin-1-yl]-5-[[6-(2-[4,4-dimethyl-9-oxo-1,10-diazatricyclo[6.4.0.0^[2,6]]dodeca-2(6),7-dien-10-yl]-3-(hydroxymethyl)pyridin-4-yl)-4-methyl-3-oxopyrazin-2-yl]amino]phenyl]prop-2-enamide]
WT BTK [1]
  Conclusion (WT BTK): Irreversible/covalent inhibition
C481S Btk
  IC50: 0.49 nM
WT BTK [2]
  IC50: 0.048 nM

## C=CC(=O)Nc1cc(Nc2nc(-c3ccnc(N4CCCn5c(cc6c5CC(C)(C)C6)C4=O)c3CO)cn(C)c2=O)ccc1N1CCN(C2COC2)C[C@@H]1C [Example 29, N-(5-[[6-(2-[4,4-dimethyl-9-oxo-1,10-diazatricyclo[6.5.0.0^[2,6]]trideca-2(6),7-dien-10-yl]-3-(hydroxymethyl)pyridin-4-yl)-4-methyl-3-oxopyrazin-2-yl]amino]-2-[(2S)-2-methyl-4-(oxetan-3-yl)piperazin-1-yl]phenyl)prop-2-enamide]
WT BTK [1]
  Conclusion (WT BTK): Irreversible/covalent inhibition
C481S Btk
  IC50: 0.32 nM
WT BTK [2]
  IC50: 0.076 nM

## C=CC(=O)Nc1cc(Nc2nc(-c3ccnc(N4CCc5c(sc6c5CCC6(C)C)C4=O)c3CO)cn(C)c2=O)ccc1N1CCN(C2COC2)C[C@@H]1C [Example 35, N-(5-[[6-(2-[5,5-dimethyl-9-oxo-7-thia-10-azatricyclo[6.4.0.0^[2,6]]dodeca-1(8),2(6)-dien-10-yl]-3-(hydroxymethyl)pyridin-4-yl)-4-methyl-3-oxopyrazin-2-yl]amino]-2-[(2S)-2-methyl-4-(oxetan-3-yl)piperazin-1-yl]phenyl)prop-2-enamide]
WT BTK [1]
  Conclusion (WT BTK): Irreversible/covalent inhibition
C481S Btk
  IC50: 17.9 nM
WT BTK [2]
  IC50: 0.13 nM

## C=CC(=O)Nc1cc(Nc2nc(-c3ccnc(N4CCc5c(sc6c5CCCC6)C4=O)c3CO)cn(C)c2=O)ccc1N1CCN(C2COC2)C[C@@H]1C [Example 36, N-[5-([6-[3-(hydroxymethyl)-2-[6-oxo-8-thia-5-azatricyclo[7.4.0.0^[2,7]]trideca-1(9),2(7)-dien-5-yl]pyridin-4-yl]-4-methyl-3-oxopyrazin-2-yl]amino)-2-[(2S)-2-methyl-4-(oxetan-3-yl)piperazin-1-yl]phenyl]prop-2-enamide]
WT BTK [1]
  Conclusion (WT BTK): Irreversible/covalent inhibition
C481S Btk
  IC50: 1.1 nM
WT BTK [2]
  IC50: 0.1 nM

## C=CC(=O)Nc1cc(Nc2nc(-c3ccnc(N4CCCn5c(cc6c5CC(C)(C)C6)C4=O)c3CO)cn(C)c2=O)ccc1N1CCN([C@H]2C[C@@H](C)O[C@@H](C)C2)C[C@@H]1C [Example 38, N-(5-[[6-(2-[4,4-dimethyl-9-oxo-1,10-diazatricyclo[6.5.0.0^[2,6]]trideca-2(6),7-dien-10-yl]-3-(hydroxymethyl)pyridin-4-yl)-4-methyl-3-oxopyrazin-2-yl]amino]-2-[(2S)-2-methyl-4-[(2R,4r,6S)-2,6-dimethyloxan-4-yl]piperazin-1-yl]phenyl)prop-2-enamide]
WT BTK [1]
  Conclusion (WT BTK): Irreversible/covalent inhibition
C481S Btk
  IC50: 0.26 nM
WT BTK [2]
  IC50: 0.073 nM

## C=CC(=O)Nc1cc(Nc2nc(-c3ccnc(N4CCn5c(cc6c5CC(C)(C)C6)C4=O)c3CO)cn(C)c2=O)ccc1N1CCN(C2CCOC2)C[C@@H]1C (stereo partly drawn) [Example 39, N-(5-[[6-(2-[4,4-dimethyl-9-oxo-1,10-diazatricyclo[6.4.0.0^[2,6]]dodeca-2(6),7-dien-10-yl]-3-(hydroxymethyl)pyridin-4-yl)-4-methyl-3-oxopyrazin-2-yl]amino]-2-[(2S)-2-methyl-4-(oxolan-3-yl)piperazin-1-yl]phenyl)prop-2-enamide]
WT BTK [1]
  Conclusion (WT BTK): Irreversible/covalent inhibition
C481S Btk
  IC50: 0.34 nM
WT BTK [2]
  IC50: 0.06 nM
